One assay deals with HCT116-MTAP-KO. Kind of assay: Compounds cell killing in HCT116 isogenic pair (CellTiter-Glo, 6 days), MTAP-KO cells. In kind it is cell-based. The conditions noted are these: Homo sapiens, HCT-116, 144 h, Cell Titer-Glo, 0-10 μM. From the text:
(§1) HCT116 cell line (ATCC, CCL-247) was isolated from the colon of an adult with colon cancer. It has a mutation in codon 13 of the ras proto-oncogene and can be used as a positive control for PCR assays of mutation in this codon. HCT116-MTAP-KO was knocked-out-MTAP-gene based HCT116, and a single clone was passed for this assay. HCT116-mock-RNA-KO was knocked-out-mock-gene based HCT116 with MTAP wildtype genotype. The base medium for HCT116 isogenic pair is RPMI 1640, HEPES (Gibco, 22400105). To make the complete growth medium, add the following components to the base medium: fetal bovine serum to a final concentration of 10% (Gibco, 10099-141C). The cell line was grown in a humidified 5% CO2 atmosphere at 37° C. and regularly tested for the presence of mycoplasma with MycoAlert™ PLUS Mycoplasma Detection Kit (Lonza, LT07-710).
(§2) • Seed HCT116-mock-RNA-KO (4E2/well) or HCT116-MTAP-KO (4E2/well) cells into a 96-well plate (Greiner: 655090), 100 µL/well. • Incubate at 37° C., 5% CO2, overnight. • Add 50 μL fresh growth-medium containing serial dilution of compounds for a final compound concentration of 0-10 μM to each well. • Incubate at 37° C., 5% CO2, 6 days. • The cell viability detected by Cell Titer-Glo (Promega, G7573). Add 70 μL of CellTiter-Glo® reagent in each well. • Incubate at room temperature for 10 minutes to stabilize luminescent signal. • Analyze with Microplate Reader (TECAN, SPARK) and fit IC50 using Prism® 9.
(In general: Cellular ATP, detected with luciferase, serves as a proxy for viable cell number.)

The next assay concerns HCT116-mock-RNA-KO. Kind of assay: Compounds cell killing in HCT116 isogenic pair (CellTiter-Glo, 6 days), mock-KO (MTAP wildtype) cells. In kind it is cell-based. The conditions noted are these: Homo sapiens, HCT-116, 144 h, Cell Titer-Glo, 0-10 μM.
From the text: as §1, §2

As to `NCc1n[nH]c(=O)c2ccc(C3(C(=O)N(Cc4ccc(-c5c(F)cccc5F)cn4)C4CCC4)CC3)cc12` [Example 25, 1-(4-(aminomethyl)-1-oxo-1,2-dihydrophthalazin-6-yl)-N-cyclobutyl-N-((5-(2,6-difluorophenyl)pyridin-2-yl)methyl)cyclopropane-1-carboxamide], the IC50 (in general, the point on the concentration scale where inhibition reaches its midpoint) in the assay with HCT116-MTAP-KO is 3690 nM; in the assay with HCT116-mock-RNA-KO, > 10000 nM.
The matching figures for `CC(C)(C)c1ccc(CN(C(=O)C2(c3ccc4c(=O)[nH]nc(CN)c4c3)CC2)C2CCCc3cccnc32)nc1` (stereo not shown) [Example 14, 1-(4-(aminomethyl)-1-oxo-1,2-dihydrophthalazin-6-yl)-N-((5-(tert-butyl)pyridin-2-yl)methyl)-N-(5,6,7,8-tetrahydroquinolin-8-yl)cyclopropane-1-carboxamide]: 378 nM and > 10000 nM.
As for `NCc1n[nH]c(=O)c2ccc(C3(C(=O)N(Cc4ccc(-c5c(F)cccc5F)cn4)[C@@H]4CCCc5cccnc54)CC3)cc12` [Example 19A, (R)-1-(4-(aminomethyl)-1-oxo-1,2-dihydrophthalazin-6-yl)-N-((5-(2,6-difluorophenyl)pyridin-2-yl)methyl)-N-(5,6,7,8-tetrahydroquinolin-8-yl)cyclopropane-1-carboxamide], the IC50 worked out at 17 nM in the assay with HCT116-MTAP-KO and 2230 nM in the assay on HCT116-mock-RNA-KO.
The matching figures for `NCc1n[nH]c(=O)c2ccc(C3(C(=O)N(Cc4ccc(-c5c(Cl)cccc5Cl)cn4)C4CCCc5cccnc54)CC3)cc12` (stereo not shown) [Example 3, 1-(4-(aminomethyl)-1-oxo-1,2-dihydrophthalazin-6-yl)-N-((5-(2,6-dichlorophenyl)pyridin-2-yl)methyl)-N-(5,6,7,8-tetrahydroquinolin-8-yl)cyclopropane-1-carboxamide]: 57 nM and 3870 nM.
The matching figures for `COc1ccnc2c1CCCC2N(Cc1ccc(C(F)(F)F)cn1)C(=O)C1(c2ccc3c(=O)[nH]nc(CN)c3c2)CC1` (stereo not shown) [Example 17, 1-(4-(aminomethyl)-1-oxo-1,2-dihydrophthalazin-6-yl)-N-(4-methoxy-5,6,7,8-tetrahydroquinolin-8-yl)-N-((5-(trifluoromethyl)pyridin-2-yl)methyl)cyclopropane-1-carboxamide]: 253 nM and > 10000 nM.
The matching figures for `NCc1n[nH]c(=O)c2ccc(C3(C(=O)N(Cc4ccc(-c5ccccc5)cn4)C4CCCc5cccnc54)CC3)cc12` (stereo not shown) [Example 10, 1-(4-(aminomethyl)-1-oxo-1,2-dihydrophthalazin-6-yl)-N-((5-phenylpyridin-2-yl)methyl)-N-(5,6,7,8-tetrahydroquinolin-8-yl)cyclopropane-1-carboxamide]: 18 nM and 7230 nM.
Consider `NCc1n[nH]c(=O)c2ccc(C3(C(=O)N(Cc4ccc(-c5c(F)cccc5F)cn4)C4CCCc5cccnc54)CC3)cc12` (stereo not shown) [Example 18, 1-(4-(aminomethyl)-1-oxo-1,2-dihydrophthalazin-6-yl)-N-((5-(2,6-difluorophenyl)pyridin-2-yl)methyl)-N-(5,6,7,8-tetrahydroquinolin-8-yl)cyclopropane-1-carboxamide], for which the values for the IC50 in the assay with HCT116-MTAP-KO and in the assay on HCT116-mock-RNA-KO were 35 nM and 2220 nM, respectively.
The matching figures for `Cc1nc(CN(C(=O)C2(c3ccc4c(=O)[nH]nc(CN)c4c3)CC2)C2CCCc3cccnc32)ccc1-c1ccccc1` (stereo not shown) [Example 8, 1-(4-(aminomethyl)-1-oxo-1,2-dihydrophthalazin-6-yl)-N-((6-methyl-5-phenylpyridin-2-yl)methyl)-N-(5,6,7,8-tetrahydroquinolin-8-yl)cyclopropane-1-carboxamide]: 255 nM and 5250 nM.
As to `NCc1n[nH]c(=O)c2ccc(C3(C(=O)N(Cc4ccc(-c5c(F)cccc5F)cn4)C4CCCc5cccc(F)c54)CC3)cc12` (stereo not shown) [Example 21, 1-(4-(aminomethyl)-1-oxo-1,2-dihydrophthalazin-6-yl)-N-((5-(2,6-difluorophenyl)pyridin-2-yl)methyl)-N-(8-fluoro-1,2,3,4-tetrahydronaphthalen-1-yl)cyclopropane-1-carboxamide], the IC50 in the assay on HCT116-MTAP-KO stood at 102 nM; in the assay on HCT116-mock-RNA-KO it was 4010 nM.
Regarding `Cc1cc(CN(C(=O)C2(c3ccc4c(=O)[nH]nc(CN)c4c3)CC2)C2CCCc3cccnc32)ncc1C(F)(F)F` (stereo not shown) [Example 7, 1-(4-(aminomethyl)-1-oxo-1,2-dihydrophthalazin-6-yl)-N-((4-methyl-5-(trifluoromethyl)pyridin-2-yl)methyl)-N-(5,6,7,8-tetrahydroquinolin-8-yl)cyclopropane-1-carboxamide], the IC50 in the assay on HCT116-MTAP-KO is 285 nM; in the assay on HCT116-mock-RNA-KO, > 10000 nM.
The like results for `Cc1nc(CN(C(=O)C2(c3ccc4c(=O)[nH]nc(CN)c4c3)CC2)C2CCCc3cccnc32)sc1I` (stereo not shown) [Example 12, 1-(4-(aminomethyl)-1-oxo-1,2-dihydrophthalazin-6-yl)-N-((5-iodo-4-methylthiazol-2-yl)methyl)-N-(5,6,7,8-tetrahydroquinolin-8-yl)cyclopropane-1-carboxamide] were, in that order, 482 nM and 6010 nM.
As to `NCc1n[nH]c(=O)c2ccc(C3(C(=O)N(Cc4ccc(C(F)(F)F)cn4)C4CCCc5cccnc54)CC3)cc12` (stereo not shown) [Example 1, 1-(4-(aminomethyl)-1-oxo-1,2-dihydrophthalazin-6-yl)-N-(5,6,7,8-tetrahydroquinolin-8-yl)-N-((5-(trifluoromethyl)pyridin-2-yl)methyl)cyclopropane-1-carboxamide], the IC50 with HCT116-MTAP-KO was 98 nM; with HCT116-mock-RNA-KO, > 10000 nM.
The matching figures for `CC1(C)COc2nc(CN(C(=O)C3(c4ccc5c(=O)[nH]nc(CN)c5c4)CC3)C3CCCc4cccnc43)ccc21` (stereo not shown) [Example 5, 1-(4-(aminomethyl)-1-oxo-1,2-dihydrophthalazin-6-yl)-N-((3,3-dimethyl-2,3-dihydrofuro[2,3-b]pyridin-6-yl)methyl)-N-(5,6,7,8-tetrahydroquinolin-8-yl)cyclopropane-1-carboxamide]: 707 nM and > 10000 nM.
The like results for `NCc1n[nH]c(=O)c2ccc(C3(C(=O)N(Cc4ccc(-c5ccccc5)cn4)[C@H]4CCCc5cccnc54)CC3)cc12` [Example 11B, (S)-1-(4-(aminomethyl)-1-oxo-1,2-dihydrophthalazin-6-yl)-N-((5-phenylpyridin-2-yl)methyl)-N-(5,6,7,8-tetrahydroquinolin-8-yl)cyclopropane-1-carboxamide] were, in that order, 2090 nM and > 10000 nM.
The matching figures for `COCC(COC)N(Cc1ccc(-c2c(F)cccc2F)cn1)C(=O)C1(c2ccc3c(=O)[nH]nc(CN)c3c2)CC1` [Example 30, 1-(4-(aminomethyl)-1-oxo-1,2-dihydrophthalazin-6-yl)-N-((5-(2,6-difluorophenyl)pyridin-2-yl)methyl)-N-(1,3-dimethoxypropan-2-yl)cyclopropane-1-carboxamide]: 254 nM and > 10000 nM.
For `NCc1n[nH]c(=O)c2ccc(C3(C(=O)N(Cc4ccc(S(F)(F)(F)(F)F)cc4)[C@@H]4CCCc5cccnc54)CC3)cc12` [Example 31, (R)-1-(4-(aminomethyl)-1-oxo-1,2-dihydrophthalazin-6-yl)-N-(4-(pentafluoro-λ^6-sulfanyl)benzyl)-N-(5,6,7,8-tetrahydroquinolin-8-yl)cyclopropane-1-carboxamide], the IC50 in the assay with HCT116-MTAP-KO is 18 nM; in the assay on HCT116-mock-RNA-KO it was 3150 nM.
For `CC(c1ncccn1)N(Cc1ccc(C(F)(F)F)cn1)C(=O)C1(c2ccc3c(=O)[nH]nc(CN)c3c2)CC1` (stereo not shown) [Example 29, 1-(4-(aminomethyl)-1-oxo-1,2-dihydrophthalazin-6-yl)-N-(1-(pyrimidin-2-yl)ethyl)-N-((5-(trifluoromethyl)pyridin-2-yl)methyl)cyclopropane-1-carboxamide], the concentration for half-maximal inhibition (IC50) was 1440 nM in the assay on HCT116-MTAP-KO and > 10000 nM with HCT116-mock-RNA-KO.
The like results for `NCc1n[nH]c(=O)c2ccc(C3(C(=O)N(Cc4ccc(-c5c(Cl)cccc5Cl)cn4)[C@@H]4CCCc5cccnc54)CC3)cc12` [Example 4A, (R)-1-(4-(aminomethyl)-1-oxo-1,2-dihydrophthalazin-6-yl)-N-((5-(2,6-dichlorophenyl)pyridin-2-yl)methyl)-N-(5,6,7,8-tetrahydroquinolin-8-yl)cyclopropane-1-carboxamide] were, in that order, 85 nM and 2950 nM.
The like results for `NCc1n[nH]c(=O)c2ccc(C3(C(=O)N(Cc4ccc(Br)cc4F)C4CCCc5cccnc54)CC3)cc12` (stereo not shown) [Example 22, 1-(4-(aminomethyl)-1-oxo-1,2-dihydrophthalazin-6-yl)-N-(4-bromo-2-fluorobenzyl)-N-(5,6,7,8-tetrahydroquinolin-8-yl)cyclopropane-1-carboxamide] were, in that order, 130 nM and 7370 nM.
As to `NCc1n[nH]c(=O)c2ccc(C3(C(=O)N(Cc4ccc(-c5c(F)cccc5F)cn4)C4CCc5cccnc54)CC3)cc12` (stereo not shown) [Example 33, 1-(4-(aminomethyl)-1-oxo-1,2-dihydrophthalazin-6-yl)-N-((5-(2,6-difluorophenyl)pyridin-2-yl)methyl)-N-(6,7-dihydro-5H-cyclopenta[b]pyridin-7-yl)cyclopropane-1-carboxamide], the IC50 in the assay with HCT116-MTAP-KO was 150 nM; with HCT116-mock-RNA-KO it was 9800 nM.

Source of the values: US20260226029A1, “1-(1-Oxo-1,2-Dihydrophthalazin-6-yl)Cycloalkyl-1-Carboxamide Derivatives as MTA-Cooperative Inhibitors of PRMT5” (BeOne Medicines I GmbH, priority 2023, published 2026).
